We go through 24 molecules from patent US10392391B2 (Vertex Pharmaceuticals Incorporated, priority 2012, dated 2019).

Each structure is given as a SMILES string. Like-named read-outs stand apart in the source and are kept apart here.

In this assay the target is ATR kinase (full-length ATR) (Homo sapiens (Human), UniProt Q13535). In words: ATR inhibition assay (radioactive-phosphate incorporation). It counts as biochemical. In a few lines:
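Radiometric 33P incorporation by 5 nM full-length ATR into 800 μM target peptide with 10 μM [γ-33P]ATP, in 50 mM Tris/HCl pH 7.5, 10 mM MgCl2, 1 mM DTT, 7% DMSO, 25° C. Compound pre-incubated 10 minutes; reaction stopped after 24 hours, captured on phosphocellulose. Ki(app) from non-linear regression of initial rates.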

The mark [1] stands for this setting: Ki(app), 5 nM full-length ATR, 10 μM ATP, 25° C.

Chain of ATR kinase (full-length ATR) (Q13535 whole entry): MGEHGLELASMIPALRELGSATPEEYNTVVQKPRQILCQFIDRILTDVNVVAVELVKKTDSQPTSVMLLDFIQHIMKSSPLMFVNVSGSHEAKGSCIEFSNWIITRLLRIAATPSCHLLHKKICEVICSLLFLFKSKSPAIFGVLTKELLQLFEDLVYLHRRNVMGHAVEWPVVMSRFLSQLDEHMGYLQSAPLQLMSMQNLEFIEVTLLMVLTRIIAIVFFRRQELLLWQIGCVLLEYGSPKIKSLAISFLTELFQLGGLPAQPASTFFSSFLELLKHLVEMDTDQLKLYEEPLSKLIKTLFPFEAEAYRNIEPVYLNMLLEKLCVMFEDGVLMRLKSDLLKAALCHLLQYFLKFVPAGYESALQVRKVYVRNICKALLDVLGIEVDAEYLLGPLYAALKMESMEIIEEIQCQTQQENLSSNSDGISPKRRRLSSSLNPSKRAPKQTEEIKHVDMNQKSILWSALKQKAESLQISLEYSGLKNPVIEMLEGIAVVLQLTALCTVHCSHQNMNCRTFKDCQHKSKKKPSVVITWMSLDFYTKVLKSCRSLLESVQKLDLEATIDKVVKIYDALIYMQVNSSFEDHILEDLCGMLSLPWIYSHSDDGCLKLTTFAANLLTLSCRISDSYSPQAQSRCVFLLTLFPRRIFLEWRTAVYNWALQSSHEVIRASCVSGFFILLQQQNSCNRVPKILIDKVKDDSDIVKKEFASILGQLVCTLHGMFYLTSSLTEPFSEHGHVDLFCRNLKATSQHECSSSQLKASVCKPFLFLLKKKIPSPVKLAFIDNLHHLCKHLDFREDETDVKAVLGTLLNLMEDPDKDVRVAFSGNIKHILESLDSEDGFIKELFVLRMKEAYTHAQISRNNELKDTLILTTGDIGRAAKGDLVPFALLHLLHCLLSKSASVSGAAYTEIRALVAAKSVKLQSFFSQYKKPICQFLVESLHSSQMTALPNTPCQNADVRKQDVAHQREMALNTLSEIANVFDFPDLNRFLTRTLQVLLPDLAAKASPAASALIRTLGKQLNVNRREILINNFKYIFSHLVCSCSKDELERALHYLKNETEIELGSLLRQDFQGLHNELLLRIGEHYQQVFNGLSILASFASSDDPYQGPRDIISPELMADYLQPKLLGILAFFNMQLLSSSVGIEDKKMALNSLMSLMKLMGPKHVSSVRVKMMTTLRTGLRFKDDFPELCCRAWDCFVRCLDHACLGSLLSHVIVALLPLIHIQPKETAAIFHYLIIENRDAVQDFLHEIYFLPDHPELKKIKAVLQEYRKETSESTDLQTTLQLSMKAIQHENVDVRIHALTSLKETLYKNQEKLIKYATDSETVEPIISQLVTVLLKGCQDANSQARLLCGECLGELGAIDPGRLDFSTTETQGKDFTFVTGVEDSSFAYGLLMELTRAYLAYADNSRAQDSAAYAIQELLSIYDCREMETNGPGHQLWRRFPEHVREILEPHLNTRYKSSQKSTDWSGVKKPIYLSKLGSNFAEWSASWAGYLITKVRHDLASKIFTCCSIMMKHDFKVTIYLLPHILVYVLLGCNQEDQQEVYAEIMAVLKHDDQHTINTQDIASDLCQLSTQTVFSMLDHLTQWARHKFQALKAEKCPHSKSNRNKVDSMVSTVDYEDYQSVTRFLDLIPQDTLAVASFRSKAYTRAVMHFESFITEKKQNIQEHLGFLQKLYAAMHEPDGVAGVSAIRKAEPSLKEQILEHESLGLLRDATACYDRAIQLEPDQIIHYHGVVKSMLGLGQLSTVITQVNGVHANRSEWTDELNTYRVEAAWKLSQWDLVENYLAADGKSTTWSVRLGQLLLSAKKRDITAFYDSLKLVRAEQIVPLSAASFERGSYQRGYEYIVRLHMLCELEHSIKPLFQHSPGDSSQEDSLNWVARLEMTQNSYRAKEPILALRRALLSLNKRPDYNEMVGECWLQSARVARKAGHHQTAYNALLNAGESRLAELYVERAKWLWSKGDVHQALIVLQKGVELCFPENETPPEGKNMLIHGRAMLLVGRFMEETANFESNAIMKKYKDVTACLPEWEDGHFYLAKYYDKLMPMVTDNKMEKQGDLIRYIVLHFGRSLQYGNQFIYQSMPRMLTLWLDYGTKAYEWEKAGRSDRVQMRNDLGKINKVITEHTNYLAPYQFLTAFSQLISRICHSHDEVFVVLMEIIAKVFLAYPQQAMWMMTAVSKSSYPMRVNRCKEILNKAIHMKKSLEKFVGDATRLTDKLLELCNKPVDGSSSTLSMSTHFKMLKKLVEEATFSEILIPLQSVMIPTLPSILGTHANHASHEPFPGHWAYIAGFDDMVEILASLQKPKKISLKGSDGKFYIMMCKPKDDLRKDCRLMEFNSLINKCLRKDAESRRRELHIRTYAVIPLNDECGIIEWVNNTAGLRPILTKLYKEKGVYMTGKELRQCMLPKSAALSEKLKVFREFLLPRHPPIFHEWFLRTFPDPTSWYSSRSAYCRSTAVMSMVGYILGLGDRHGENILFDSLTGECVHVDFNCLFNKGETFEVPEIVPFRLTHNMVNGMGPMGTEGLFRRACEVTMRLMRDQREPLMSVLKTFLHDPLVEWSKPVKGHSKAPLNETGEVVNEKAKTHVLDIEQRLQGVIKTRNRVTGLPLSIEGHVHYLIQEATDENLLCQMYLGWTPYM

Regarding `CN1CC2(CCN(c3c(F)cncc3NC(=O)c3c(N)nn4cc(F)cnc34)CC2)OC1=O` [I-N-229, 2-amino-6-fluoro-N-(5-fluoro-4-(3-methyl-2-oxo-1-oxa-3,8-diazaspiro[4.5]decan-8-yl)pyridin-3-yl)pyrazolo[1,5-a]pyrimidine-3-carboxamide], the Ki under setting [1] lay within 10 to 1000 nM.

In the case of `Nc1nn2cc(F)cnc2c1C(=O)Nc1cncc(F)c1N1CCC(C(=O)N2CCN3CC[C@H]2C3)CC1` [I-G-70, N-(4-(4-((5S)-1,4-diazabicyclo[3.2.1]octane-4-carbonyl)piperidin-1-yl)-5-fluoropyridin-3-yl)-2-amino-6-fluoropyrazolo[1,5-a]pyrimidine-3-carboxamide], the Ki under setting [1] was 10 to 1000 nM.

Consider `COCC1CCN(c2ccncc2NC(=O)c2c(N)nn3cc(F)cnc23)CC1` [I-N-282, 2-amino-6-fluoro-N-(4-(4-(methoxymethyl)piperidin-1-yl)pyridin-3-yl)pyrazolo[1,5-a]pyrimidine-3-carboxamide], for which the Ki under setting [1] lay in the range of 10 to 1000 nM.

As to `CCN1CCC(C(=O)N2CCN(c3c(F)cncc3NC(=O)c3c(N)nn4cc(F)cnc34)CC2)C1` (stereo not drawn) [I-N-207, 2-amino-N-(4-(4-(1-ethylpyrrolidine-3-carbonyl)piperazin-1-yl)-5-fluoropyridin-3-yl)-6-fluoropyrazolo[1,5-a]pyrimidine-3-carboxamide], the Ki under setting [1] was in the range of 10 to 1000 nM.

As for `Nc1nn2cc(F)cnc2c1C(=O)Nc1cncc(F)c1N1CCN2C(=O)CCC[C@@H]2C1` [I-N-280, (R)-2-amino-6-fluoro-N-(5-fluoro-4-(6-oxohexahydro-1H-pyrido[1,2-a]pyrazin-2(6H)-yl)pyridin-3-yl)pyrazolo[1,5-a]pyrimidine-3-carboxamide], the Ki under setting [1] was 10 to 1000 nM.

In the case of `N#CCc1cnc2c(C(=O)Nc3cnccc3N3CCC(N)CC3)c(N)nn2c1` [I-N-2, 2-amino-N-(4-(4-aminopiperidin-1-yl)pyridin-3-yl)-6-(cyanomethyl)pyrazolo[1,5-a]pyrimidine-3-carboxamide], under setting [1], the Ki fell in the range of 10 to 1000 nM.

For the molecule `Nc1nn2cc(F)cnc2c1C(=O)Nc1cncc(F)c1N1CCC(C(=O)N2CC[C@H](N3CCCC3)C2)CC1` [I-G-58, (S)—N-(4-(4-([1,3′-bipyrrolidine]-1′-carbonyl)piperidin-1-yl)-5-fluoropyridin-3-yl)-2-amino-6-fluoropyrazolo[1,5-a]pyrimidine-3-carboxamide], the Ki under setting [1] lay within 10 to 1000 nM.

Regarding `Nc1nn2cc(F)cnc2c1C(=O)Nc1cnccc1N1CCC(S(=O)(=O)N2CCC2)CC1` [I-N-271, 2-amino-N-(4-(4-(azetidin-1-ylsulfonyl)piperidin-1-yl)pyridin-3-yl)-6-fluoropyrazolo[1,5-a]pyrimidine-3-carboxamide], the Ki under setting [1] lay in the range of 10 to 1000 nM.

`Nc1nn2cc(F)cnc2c1C(=O)Nc1cnccc1C1CCOC1` (stereo not drawn) [I-C-75, 2-amino-6-fluoro-N-(4-(tetrahydrofuran-3-yl)pyridin-3-yl)pyrazolo[1,5-a]pyrimidine-3-carboxamide]: the Ki under setting [1] lay in the range of 10 to 1000 nM.

As for `CN(C)C1CN(C2CCN(c3ccncc3NC(=O)c3c(N)nn4cc(Cl)cnc34)CC2)C1` [I-N-94, 2-amino-6-chloro-N-(4-(4-(3-(dimethylamino)azetidin-1-yl)piperidin-1-yl)pyridin-3-yl)pyrazolo[1,5-a]pyrimidine-3-carboxamide], the Ki under setting [1] was in the range of 10 to 1000 nM.

Take `Nc1nn2cc(Cl)cnc2c1C(=O)Nc1cnccc1OC1CN2CCC1CC2` (stereo not drawn) [I-O-62, 2-amino-6-chloro-N-(4-(quinuclidin-3-yloxy)pyridin-3-yl)pyrazolo[1,5-a]pyrimidine-3-carboxamide]: under setting [1], the Ki was in the range of 10 to 1000 nM.

For `CC1(O)CN(C(=O)C2CCN(c3c(F)cncc3NC(=O)c3c(N)nn4cc(F)cnc34)CC2)C1` [I-G-63, 2-amino-6-fluoro-N-(5-fluoro-4-(4-(3-hydroxy-3-methylazetidine-1-carbonyl)piperidin-1-yl)pyridin-3-yl)pyrazolo[1,5-a]pyrimidine-3-carboxamide], the Ki under setting [1] lay within 10 to 1000 nM.

As to `Nc1nn2cc(F)cnc2c1C(=O)Nc1cnccc1-c1cccnc1` [I-C-15, N-([3,4′-bipyridin]-3′-yl)-2-amino-6-fluoropyrazolo[1,5-a]pyrimidine-3-carboxamide], under setting [1], the Ki lay in the range of 10 to 1000 nM.

With `CN1CCN(C(=O)C2CCN(c3c(F)cncc3NC(=O)c3c(N)nn4cc(F)cnc34)C2)CC1` (stereo not drawn) [I-N-191, 2-amino-6-fluoro-N-(5-fluoro-4-(3-(4-methylpiperazine-1-carbonyl)pyrrolidin-1-yl)pyridin-3-yl)pyrazolo[1,5-a]pyrimidine-3-carboxamide], the Ki was in the range of 1000 to 5000 nM.

With `COC1CCN(C2CCN(c3ccncc3NC(=O)c3c(N)nn4cc(Cl)cnc34)CC2)C1` (stereo not drawn) [I-N-95, 2-amino-6-chloro-N-(4-(4-(3-methoxypyrrolidin-1-yl)piperidin-1-yl)pyridin-3-yl)pyrazolo[1,5-a]pyrimidine-3-carboxamide], the Ki under setting [1] lay in the range of 10 to 1000 nM.

Consider `Nc1nn2cc(F)cnc2c1C(=O)Nc1cncc(F)c1N1CCN(C(=O)C2CC3CCCCN3C2)CC1` (stereo not drawn) [I-N-203, 2-amino-6-fluoro-N-(5-fluoro-4-(4-(octahydroindolizine-2-carbonyl)piperazin-1-yl)pyridin-3-yl)pyrazolo[1,5-a]pyrimidine-3-carboxamide], for which the Ki under setting [1] fell in the range of 10 to 1000 nM.

Regarding `Nc1nn2cc(F)cnc2c1C(=O)Nc1cnccc1-c1ccncc1` [I-C-24, N-([4,4′-bipyridin]-3-yl)-2-amino-6-fluoropyrazolo[1,5-a]pyrimidine-3-carboxamide], the Ki under setting [1] is 10 to 1000 nM.

As for `CN(C)CCc1cnn(-c2ccncc2NC(=O)c2c(N)nn3cc(F)cnc23)c1` [I-N-9, 2-amino-N-(4-(4-(2-(dimethylamino)ethyl)-1H-pyrazol-1-yl)pyridin-3-yl)-6-fluoropyrazolo[1,5-a]pyrimidine-3-carboxamide], the Ki fell in the range of 1000 to 5000 nM.

As to `Cc1ccn(-c2ccncc2NC(=O)c2c(N)nn3cc(F)cnc23)n1` [I-N-225, 2-amino-6-fluoro-N-(4-(3-methyl-1H-pyrazol-1-yl)pyridin-3-yl)pyrazolo[1,5-a]pyrimidine-3-carboxamide], under setting [1], the Ki was in the range of 10 to 1000 nM.

Regarding `Nc1nn2cc(F)cnc2c1C(=O)Nc1cnccc1N1CCC(c2ncon2)CC1` [I-N-241, N-(4-(4-(1,2,4-oxadiazol-3-yl)piperidin-1-yl)pyridin-3-yl)-2-amino-6-fluoropyrazolo[1,5-a]pyrimidine-3-carboxamide], under setting [1], the Ki lay within 10 to 1000 nM.

As to `Cc1ccncc1NC(=O)c1c(N)nn2cc(F)cnc12` [I-C-4, 2-amino-6-fluoro-N-(4-methylpyridin-3-yl)pyrazolo[1,5-a]pyrimidine-3-carboxamide], under setting [1], the Ki lay in the range of 10 to 1000 nM.

For `CC(C)N1CCN(c2ccncc2NC(=O)c2c(N)nn3cc(Cl)cnc23)CC1` [I-N-39, 2-amino-6-chloro-N-(4-(4-isopropylpiperazin-1-yl)pyridin-3-yl)pyrazolo[1,5-a]pyrimidine-3-carboxamide], under setting [1], the Ki was 10 to 1000 nM.

On to `Nc1nn2cc(F)cnc2c1C(=O)Nc1cnccc1O[C@@H]1CN2CCC1CC2` [I-O-10, (S)-2-amino-6-fluoro-N-(4-(quinuclidin-3-yloxy)pyridin-3-yl)pyrazolo[1,5-a]pyrimidine-3-carboxamide], for which the Ki under setting [1] lay within 10 to 1000 nM.

As to `CCOC1CN(C(=O)C2CCN(c3ccncc3NC(=O)c3c(N)nn4cc(F)cnc34)CC2)C1` [I-G-91, 2-amino-N-(4-(4-(3-ethoxyazetidine-1-carbonyl)piperidin-1-yl)pyridin-3-yl)-6-fluoropyrazolo[1,5-a]pyrimidine-3-carboxamide], the Ki under setting [1] fell in the range of 10 to 1000 nM.
